From US10053437B2, “Salt of dicarboxylic acid compound” (Daiichi Sankyo Company, Limited, priority 2014, dated 2018)
≈ marks a conversion by molar mass, not a printed value. Structures can show the parent of a compound that is named as a salt. Where two headings read alike, the source gives them in different places.

Tests used:
[1] = Measurement of solubility (shaking at 37° C., UHPLC); format: physicochemical; conditions: for solubility at 24 h / solubility at 30 min: thermodynamic from solid; for Solubility Mc pH 6.0: diluted McIlvaine buffer pH 6.0, shaking at 37° C. for 30 minutes; for Solubility diluted McIlvaine buffer pH 6.0: diluted McIlvaine buffer pH 6.0, shaking at 37° C. for 24 hours
Method: With regard to the measurement of solubility, solubility was calculated by the following operations.
Approximately 5 mg of a sample was weighed into a test tube, and then 5 mL each solution (see below) that had previously been set at 37° C. was added to the test tube.
Using Thermomixer Comfort (a shaker) manufactured by Eppendorf, the test tube was intensively shaken at 37° C. for 30 seconds at 750 rpm, and was then left at rest for 4 minutes 30 seconds. This shaking and resting operation was repeated 5 times (30 minutes in total).
The solutions obtained 30 minutes and 24 hours after initiation of the shaking were promptly filtered through a membrane filter (pore diameter: 0.45 μm), and the obtained filtrates were each diluted with a sample solution to an appropriate concentration. The concentration of a compound in the filtrate was measured by UHPLC, and solubility was then calculated.
The following solutions were used. • JP1: 2.0 g of sodium chloride was dissolved in 7.0 mL of hydrochloric acid and water to prepare 1000 mL of a solution (pH: about 1.2). • JP2: 118 mL of a 0.2 mol/L sodium hydroxide test solution and water were added to 250 mL of a 0.2 mol/L potassium dihydrogen phosphate test solution to prepare 1000 mL of a solution (pH: about 6.8). • Water: Ultrapure water (for use in LC/MS) manufactured by Wako Pure Chemical Industries, Ltd. was used. • Mc pH 6.0: A diluted McIlvaine buffer (pH 6.0) manufactured by Kanto Chemical Co., Inc. was used. • Mc pH 7.5: A diluted McIlvaine buffer (pH 7.5) manufactured by Kanto Chemical Co., Inc. was used.
Conditions for HPLC are as follows.
Apparatus: UHPLC H-Class manufactured by Waters
Mobile phase: A: 0.01 mol/L aqueous potassium phosphate solution (pH 4.0); B: acetonitrile
Column: Acquity UPLC BEH C18, 2.1 mm ID×75 mm, particle diameter: 1.7 μm (Waters)
Column temperature: 40° C.
Detection wavelength: 220 nm

[2] = test system: intestinal phosphate absorption; experiment: Rat 33P phosphate oral challenge test (intestinal phosphate absorption suppression test); format: in vivo; conditions: male SD rats, 30 mg/kg forced oral administration, serum radioactivity AUC0-60 min vs control group
Method: (Test Example) Rat ^33P Phosphate Oral Challenge Test (Intestinal Phosphate Absorption Suppression Test)
Using male SD rats (5-7 weeks old) that had been fasted on the previous day, the compound described in the Examples was suspended or dissolved in a solvent such as 0.5% methyl cellulose (3-6 mg/mL), and the thus obtained solution was administered to each rat at a dose of 30 mg/kg by forced oral administration. On the other hand, regarding a control group, the solvent was administered to each rat at a dose of 5 mL/kg. Thirty minutes after administration, a […] phosphate solution (8.3 mM NaH2PO4, 0.35 MBq/mL) was administered to the rats at a dose of 7.2 mL/kg by forced oral administration. Then, 15, 30, 60, and 120 minutes after administration, blood was collected from the jugular vein of each rat under anesthesia with isoflurane. The radioactivity in […] was measured using a liquid scintillation counter, and the AUC0-60 min was then calculated from the radioactivity value. The obtained value was defined as an amount of phosphate absorbed. The phosphate absorption-inhibiting activity of the compound was calculated according to the following expression. Phosphate absorption-inhibiting activity (%)=[…]

[3] = JP2 (pH about 6.8), shaking at 37° C. for 30 minutes
[4] = JP2 (pH about 6.8), shaking at 37° C. for 24 hours
[5] = shaking at 37° C. for 30 minutes

CCN([C@H]1CC[C@H](C(=O)O)CC1)S(=O)(=O)c1cccc(C(=O)Nc2ccc(N3CCCCC3)cc2C(=O)Nc2ccc(CCc3ccc(C(=O)O)cc3)cc2)c1 [Example 1, Disodium 4-[2-(4-{[2-({3-[(trans-4-carboxycyclohexyl) (ethyl)sulfamoyl]benzoyl}amino)-5-(piperidin-1-yl)benzoyl]amino}phenyl)ethyl]benzoate trihydrate]
solubility at 24 h ([1]; 37 °C, pH 6.8, aqueous buffer, JP2 (pH about 6.8), shaking at 37° C. for 24 hours, unit inferred, read-out: Solubility JP2): 10.7 µg/mL | solubility at 30 min ([1]; JP1 solution (sodium chloride/hydrochloric acid in water), 37 °C, pH 1.2, simulated gastric fluid, JP1 (pH about 1.2), shaking at 37° C. for 30 minutes, read-out: Solubility JP1): 1 µg/mL | solubility at 24 h ([1]; JP1 solution (sodium chloride/hydrochloric acid in water), 37 °C, pH 1.2, simulated gastric fluid, JP1 (pH about 1.2), shaking at 37° C. for 24 hours, unit inferred, read-out: Solubility JP1): 1.3 µg/mL | Solubility JP2 ([1]; JP2 (pH about 6.8), shaking at 37° C. for 30 minutes, trihydrate): 40.3 µg/mL | Solubility Mc pH 6.0 ([1]; trihydrate): 1.1 μg/mL | Solubility diluted McIlvaine buffer pH 6.0 ([1]; trihydrate): 0.1 μg/mL | Solubility water ([1]; shaking at 37° C. for 30 minutes, trihydrate): 949.4 µg/mL | Solubility water ([1]; shaking at 37° C. for 24 hours, trihydrate): 960.1 µg/mL | Phosphorus absorption-inhibiting activity (%) [2]: 72%

CCN([C@H]1CC[C@H](C(=O)O)CC1)S(=O)(=O)c1cccc(C(=O)Nc2ccc(N3CCCCC3)cc2C(=O)Nc2ccc(CCc3ccc(C(=O)O)cc3)cc2)c1 [Example 6, potassium sodium 4-[2-(4-{[2-({3-[(trans-4-carboxycyclohexyl)(ethyl)sulfamoyl]benzoyl}amino)-5-(piperidin-1-yl)benzoyl]amino}phenyl)ethyl]benzoate hydrate]
Solubility JP2 ([1]; JP2 (pH about 6.8), shaking at 37° C. for 30 minutes, hydrate): 22.5 µg/mL | Solubility JP2 ([1]; JP2 (pH about 6.8), shaking at 37° C. for 24 hours, hydrate): 968.5 µg/mL | Solubility water ([1]; shaking at 37° C. for 30 minutes, hydrate): 2.2 µg/mL | Solubility water ([1]; shaking at 37° C. for 24 hours, hydrate): 940.7 µg/mL | Phosphorus absorption-inhibiting activity (%) ([2]; hydrate, 30 mg/kg): 59%

CCN([C@H]1CC[C@H](C(=O)O)CC1)S(=O)(=O)c1cccc(C(=O)Nc2ccc(N3CCCCC3)cc2C(=O)Nc2ccc(CCc3ccc(C(=O)O)cc3)cc2)c1 [Example 7, mono-p-toluenesulfonate of 4-[2-(4-{[2-({3-[(trans-4-carboxycyclohexyl)(ethyl)sulfamoyl]benzoyl}amino)-5-(piperidin-1-yl)benzoyl]amino}phenyl)ethyl]benzoic acid]
Solubility JP1 ([1]; JP1 (pH about 1.2), shaking at 37° C. for 30 minutes): 0.7 µg/mL (≈ 0.896 µM) | solubility at 24 h ([1]; JP1 solution (sodium chloride/hydrochloric acid in water), 37 °C, pH 1.2, simulated gastric fluid, JP1 (pH about 1.2), shaking at 37° C. for 24 hours, unit printed as μL, read-out: Solubility JP1): 0.1 µg/mL (≈ 0.128 µM) | Solubility JP2 [1, 3]: 61.7 µg/mL (≈ 79 µM) | Solubility JP2 [1, 4]: 87.5 µg/mL (≈ 112 µM) | Solubility diluted McIlvaine buffer pH 6.0 [1]: 1058.4 μg/mL | solubility at 30 min ([1]; diluted McIlvaine buffer pH 7.5, 37 °C, pH 7.5, aqueous buffer, diluted McIlvaine buffer pH 7.5, shaking at 37° C. for 30 minutes, read-out: Solubility Mc pH 7.5): 639 µg/mL (≈ 819 µM) | Solubility water [1, 5]: 0.2 µg/mL (≈ 0.256 µM) | Solubility water ([1]; shaking at 37° C. for 24 hours): 0.2 µg/mL (≈ 0.256 µM)

CCN([C@H]1CC[C@H](C(=O)O)CC1)S(=O)(=O)c1cccc(C(=O)Nc2ccc(N3CCCCC3)cc2C(=O)Nc2ccc(CCc3ccc(C(=O)O)cc3)cc2)c1 [Example 8, monopiperazine salt of 4-[2-(4-{[2-({3-[(trans-4-carboxycyclohexyl)(ethyl)sulfamoyl]benzoyl}amino)-5-(piperidin-1-yl)benzoyl]amino}phenyl)ethyl]benzoic acid]
solubility at 24 h ([1]; JP1 solution (sodium chloride/hydrochloric acid in water), 37 °C, pH 1.2, simulated gastric fluid, JP1 (pH about 1.2), shaking at 37° C. for 24 hours, read-out: Solubility JP1): 1.4 µg/mL | Solubility JP2 [1, 3]: 105.7 µg/mL | Solubility JP2 [1, 4]: 137.8 µg/mL | Solubility Mc pH 6.0 [1]: 3.3 μg/mL | Solubility diluted McIlvaine buffer pH 6.0 [1]: 0.2 μg/mL | Solubility water [1, 5]: 31.7 µg/mL | Solubility water ([1]; shaking at 37° C. for 24 hours): 429.5 µg/mL
